# Data: patent publication US20030129262A1, “Methionine restriction for cancer therapy” (priority 2001, published 2003)
# Counter-ions that a name gives are not always drawn. Starred links: 1 amine or outer side, 2 acyl side, 3 side chain; linkers in the order of their positions; H or OH if unused. Positions of bridges follow the written chain, without caps; N, C: chain ends. Non-standard residues stand in square brackets, D forms with d. Residues, ends and D or L forms follow the SMILES beside them. Chains are numbered I, II in the order given. Actinocin(9to1) = Cc1c2oc3c(C)ccc(C(=O)[*:1])c3nc-2c(C(=O)[*:2])c(N)c1=O; NMeV = CN[C@H](C(=O)O)C(C)C; Sar = CNCC(=O)O
# Tests used:
# thymidylate synthase [1] = assay: Western blot of TS protein in PC3 cells; type: cell-based, Human
# Method: (§1) Human prostate cancer PC3 cells (American Type Culture Collection, Rockville, Md.) were maintained in RPMI-1640 (Life Technologies, Inc., Gaithersburg, Md.) supplemented with 10% FBS (HyClone Laboratories, Logan, Utah) at 37° C. in 5% CO2. Methionine restriction experiments were performed in methionine-free RPMI-1640 (Life Technologies, Inc.) supplemented with 10% FBS and 100 μM Homocysteine (Sigma, St. Louis). Folate restriction experiments were performed in folate-free RPMI-1640 medium (Life Technologies, Inc.) supplemented with 10% FBS. Primary culture prostate epithelial cells (PrEC) were purchased from BioWhittaker, Inc. and Clonetics Products (Walkersville, Md.). PrEC was maintained in the prostate epithelial basal medium and methionine restriction was performed in prostate epithelial cell labeling medium without methionine supplemented with 100 μM homocysteine, which were obtained from the company.
# Aliquots of samples with 50 μg of protein, determined by the Bradford assay (BioRad, Hercules, Calif.), were mixed with loading buffer (final concentrations of 62.5 mM Tris-HCl (pH 6.8), 2.3% SDS, 100 mM dithiothreitol, and 0.005% bromophenol blue), boiled, fractionated in a 10% SDS-PAGE, and transferred onto a 0.45-μm nitrocellulose membrane by electroblotting (BioRad). […]
# PC-3 cells [2] = assay: HPLC analysis of nucleotide levels; type: cell-based, Human; settings: positive control for TS inhibition
# Method: Cells were washed with phosphate buffered saline (PBS), trypsinized, washed again with PBS, counted, and pelleted. 5×10^5 cells from each sample were mixed with 10 μL 0.6 M trichloroacetic acid. The lysate was incubated at 4° C. for 30 minutes. After centrifugation, the acidic supernatant was transferred to a microcentrifuge tube. An equal volume of ice cold 80% 1,1,2-trichlorotrifluoroethane and 20% tri-n-octylamine was added to the lysate. The mixture was vortexed for 15 seconds and then centrifuged at 14000 g at 4° C. for 5 minutes. The aqueous supernatant was removed and centrifuged at 14000 g at 4° C. for 5 minutes. Samples were stored at −70° C. until use.used.
# Clromatographic analyses were performed with a Waters 625 LC System (Waters Corporation, Milford, Mass., USA) consisting of a Waters 625 Fluid Handling Unit with a Rheodyne 9125-080 Manual Injector and 20 μL sample loop, 625E Powerline Controller, and 484 Tunable UV Detector. […]
# A series of standards containing varying amounts of dUMP and dTTP ranging from […] was analyzed using the above methodology. The different quantities and their correlating absorption areas existed in a linear relationship. […] This linear equation was used to calculate the quantity of dUMP or dTTP represented by the absorption peaks in the chromatograms generated from our experimental samples.
# thymidylate synthase [3] = assay: Thymidylate synthase (TS) assay in PC-3 cells; type: cell-based, Human; settings: PC3 cells, within 8 hours
# Method: as §1
# TS assay was performed as previously described (24). Briefly, 25 μl of cell extract containing 50 μg protein, 5 μl 6.5 mM 5,10-CH2-THF, and 10 μl of Tris.HCl buffer were combined at room temperature. […] After centrifugation, 150 μl of the supernatant were counted by liquid scintillation. […]
# [4] = cited from earlier work
# GBM at recurrence = settings: single agent, cited from earlier work
# Yoshida sarcoma = settings: coadministered with methionine depleted diet, 1.0 mg/kg/day on days 2, 4, 6; cited from earlier work
# multiple myeloma = settings: oral administration; cited from earlier work
# [5] = tested on: human breast carcinoma (MX-t) cell line; settings: combined with methionine depletion; cited from earlier work
# Hela cells = assay: Western blot of caspases, BID, Bcl-2, Hela
# PC-3 cells [6] = assay: Western blot of caspases, BID, Bcl-2, PC-3; type: cell-based, Human
# [7] = tested on: Hodgkin's Disease and testicular tumors; settings: in vivo; cited from earlier work
compound,measurement,setting,value
"O=c1[nH]cc(F)c(=O)[nH]1 [5-FU, 5-fluorouracil]",TS protein accumulation in response to 5-FU,thymidylate synthase [1]; concurrent methionine restriction,largely abrogated
same,TS protein level,thymidylate synthase [1]; western blot,dramatically increased
same,dUMP/dTTP ratio,PC-3 cells [2],dramatic increase
same,inhibition of TS activity,thymidylate synthase [3],95%
"Cc1c2oc3c(C)ccc(C(=O)N[C@@H]4C(=O)N[C@H](C(C)C)C(=O)N5CCC[C@H]5C(=O)N(C)CC(=O)N(C)[C@@H](C(C)C)C(=O)O[C@@H]4C)c3nc-2c(C(=O)N[C@@H]2C(=O)N[C@H](C(C)C)C(=O)N3CCC[C@H]3C(=O)N(C)CC(=O)N(C)[C@@H](C(C)C)C(=O)O[C@@H]2C)c(N)c1=O [Actinomycin D] (I: T[dV]P[Sar][NMeV] / II: T[dV]P[Sar][NMeV]; ester I:1-I:C, II:1-II:C; linker I:N-II:N via Actinocin(9to1))",fraction of the dose excreted intact into the bile,[4]; in vivo,Half
"O=NN(CCCl)C(=O)NCCCl [Carmustine, 1,3bis (2-chloroethyl)-1-nitrosourea]",Response rate (responders plus stable disease),"GBM at recurrence; Berger et al., 1996",29%
same,median time to progression,GBM at recurrence,22 weeks
"COc1cccc2c1C(=O)c1c(O)c3c(c(O)c1C2=O)C[C@@](O)(C(=O)CO)C[C@@H]3O[C@H]1C[C@H](N)[C@H](O)[C@H](C)O1 [Doxorubicin, 5,12-Naphthacenedione, (8s-cis)-10-[(3-amino-2,3,6-trideoxy-a-L-lyxo-hexopyranosyl)oxy]-7,8,9,10-tetrahydro-6,8,11-trihydroxy-8-(hydroxyacetyl)-1-methoxy-hydrochloride]","effectiveness (reduced tumor weight, increased survivability)",Yoshida sarcoma,enhanced effectiveness
"O=NN(CCCl)C(=O)NC1CCCCC1 [Lomustine, 1-(2-chloro-ethyl)-3-cyclohexyl-1 nitrosourea]",fraction of radioactivity excreted as degradation products,"[4]; oral, 30 mg/m^2 to 100 mg/m^2, within 24 hours",about half
"N[C@@H](Cc1ccc(N(CCCl)CCCl)cc1)C(=O)O [Melphalan, 4-[bis(2-chloroethyl)amino]-L-phenylalanine]",fraction of patients with favorable response,multiple myeloma,one third to one half
"N.N.[Cl][Pt][Cl] [cisplatin, Cisplatin]","Treated tumor growth, % of growth in control mice tumors",[5],32%
CN[C@@H]1C[C@H]2O[C@@](C)([C@@H]1OC)n1c3ccccc3c3c4c(c5c6ccccc6n2c5c31)C(=O)NC4 [staurosporine],active (cleaved) form of caspases by western blot,Hela cells,detectable
"CC(=O)O[C@H]1C(=O)[C@@]2(C)[C@H]([C@H](OC(=O)c3ccccc3)[C@]3(O)C[C@H](OC(=O)[C@H](O)[C@@H](NC(=O)c4ccccc4)c4ccccc4)C(C)=C1C3(C)C)[C@]1(OC(C)=O)CO[C@@H]1C[C@@H]2O [taxol, Taxol]",Bcl-2 phosphorylation (upward shift on western blot),Hela cells,phosphorylated
same,Bcl-2 phosphorylation (upward shift on western blot),PC-3 cells [6],phosphorylated
Bleomycin,time until improvement is noted,[7],≤ 2 weeks
